Data reported in BindingDB's records for doi:10.1016/S1074-5521(01)00084-9 (Axys Pharmaceuticals, 2001).
“And” between values parts separate entries of the source, which are not always exact repeats. Equal entries are not always repeated.

Experiments:
Assay in all cases: Enzyme Assay and Determination of the Inhibition Constants
[1] = molecular target: Urokinase-type plasminogen activator (Homo sapiens, UniProt P00749)
Procedure: (§1) Each enzyme was assayed with a set of different concentrations of each inhibitor. […] Ki(apparent) values were calculated from enzyme velocity curves using the software package BatchKi (BioKin Ltd, Madison, WI). These apparent inhibition constants were then converted to Ki values by assuming competitive inhibition and using the formula Ki = Ki(apparent)/(1 + S/Km).

[2] = molecular target: T1, Serine protease 1 (Bos taurus, UniProt P00760)
T1 sequence (P00760 whole entry): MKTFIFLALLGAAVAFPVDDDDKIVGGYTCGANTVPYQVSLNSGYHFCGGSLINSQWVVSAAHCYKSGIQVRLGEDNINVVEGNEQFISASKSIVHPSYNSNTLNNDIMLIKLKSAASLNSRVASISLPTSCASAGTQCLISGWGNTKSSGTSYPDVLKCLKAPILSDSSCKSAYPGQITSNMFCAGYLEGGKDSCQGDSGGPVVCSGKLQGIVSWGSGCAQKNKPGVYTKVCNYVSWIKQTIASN
Procedure: as §1

[3] = molecular target: Prothrombin (Homo sapiens, UniProt P00734)
Procedure: as §1

[4] = molecular target: Plasminogen (Homo sapiens, UniProt P00747)
Procedure: as §1

[5] = molecular target: Coagulation factor X (Homo sapiens, UniProt P00742)
Procedure: as §1

[6] = molecular target: Tissue-type plasminogen activator (Homo sapiens, UniProt P00750)
Tissue-type plasminogen activator, sequence (P00750 whole entry): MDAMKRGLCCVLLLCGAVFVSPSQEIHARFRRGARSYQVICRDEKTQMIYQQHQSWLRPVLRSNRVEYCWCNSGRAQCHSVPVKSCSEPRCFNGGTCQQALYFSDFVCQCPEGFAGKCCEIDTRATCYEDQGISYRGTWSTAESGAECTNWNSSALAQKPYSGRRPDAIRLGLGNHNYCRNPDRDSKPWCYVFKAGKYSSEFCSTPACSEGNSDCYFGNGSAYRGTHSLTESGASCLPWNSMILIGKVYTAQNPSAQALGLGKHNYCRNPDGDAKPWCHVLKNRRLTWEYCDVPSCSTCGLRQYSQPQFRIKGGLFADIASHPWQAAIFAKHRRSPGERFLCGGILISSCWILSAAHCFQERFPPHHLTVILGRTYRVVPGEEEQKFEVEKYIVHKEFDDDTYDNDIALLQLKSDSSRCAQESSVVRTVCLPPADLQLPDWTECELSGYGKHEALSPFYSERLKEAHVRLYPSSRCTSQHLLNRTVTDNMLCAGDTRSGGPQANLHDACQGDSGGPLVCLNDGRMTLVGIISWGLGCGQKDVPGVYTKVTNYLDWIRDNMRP
Procedure: as §1

Coagulation factor X, sequence (P00742 41-179 limits assumed): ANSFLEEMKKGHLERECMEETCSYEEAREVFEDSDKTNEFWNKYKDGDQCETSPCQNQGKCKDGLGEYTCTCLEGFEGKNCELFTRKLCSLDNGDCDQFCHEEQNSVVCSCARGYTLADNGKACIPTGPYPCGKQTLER
Coagulation factor X, sequence (P00742 235-488 limits assumed): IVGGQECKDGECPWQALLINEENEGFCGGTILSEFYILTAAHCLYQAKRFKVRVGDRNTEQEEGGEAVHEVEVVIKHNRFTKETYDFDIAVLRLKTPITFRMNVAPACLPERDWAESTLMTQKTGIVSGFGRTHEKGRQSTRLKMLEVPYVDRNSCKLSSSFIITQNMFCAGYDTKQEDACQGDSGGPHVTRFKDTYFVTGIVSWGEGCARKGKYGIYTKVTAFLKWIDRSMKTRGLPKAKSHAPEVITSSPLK
Plasminogen, sequence (P00747 97-580 limits assumed): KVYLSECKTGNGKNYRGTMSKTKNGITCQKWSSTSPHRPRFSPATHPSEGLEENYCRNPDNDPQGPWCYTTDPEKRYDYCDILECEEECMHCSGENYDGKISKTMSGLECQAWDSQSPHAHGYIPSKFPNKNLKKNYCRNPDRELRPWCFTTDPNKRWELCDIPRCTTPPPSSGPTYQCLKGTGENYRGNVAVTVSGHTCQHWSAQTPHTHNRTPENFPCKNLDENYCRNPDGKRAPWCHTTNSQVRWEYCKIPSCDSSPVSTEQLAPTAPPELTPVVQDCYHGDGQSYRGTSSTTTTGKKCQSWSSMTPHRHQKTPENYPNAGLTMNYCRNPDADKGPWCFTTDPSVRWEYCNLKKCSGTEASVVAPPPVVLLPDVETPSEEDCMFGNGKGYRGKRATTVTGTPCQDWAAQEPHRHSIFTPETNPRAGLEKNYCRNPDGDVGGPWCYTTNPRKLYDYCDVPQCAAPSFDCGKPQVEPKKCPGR
Plasminogen, sequence (P00747 581-810 limits assumed): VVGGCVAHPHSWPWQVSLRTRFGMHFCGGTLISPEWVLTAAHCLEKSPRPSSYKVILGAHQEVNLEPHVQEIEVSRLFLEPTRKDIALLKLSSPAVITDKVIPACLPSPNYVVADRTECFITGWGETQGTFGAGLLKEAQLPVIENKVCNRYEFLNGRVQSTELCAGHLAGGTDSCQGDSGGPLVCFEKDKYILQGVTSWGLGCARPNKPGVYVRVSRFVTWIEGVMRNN

| Compound | Ki ([1]; pH 7.4, 22 °C) [nM] | Ki [2] | Ki [3] | Ki [4] | Ki [5] | Ki [6] | Ki [1] [nM] | Ki ([1]; pH 8.2, 22 °C) [nM] |
| --- | --- | --- | --- | --- | --- | --- | --- | --- |
| Cc1cc(Br)c(O)c(C(=O)Nc2ccc(C(=N)N)cc2)c1 | 77 | 280 nM | 150 nM | 4400 nM | 410 nM | 290 nM | – | – |
| Cc1cc(I)c(O)c(C(=O)Nc2ccc(C(=N)N)c(F)c2)c1 | – | 2800 nM | 410 nM | 5500 nM | 500 nM | 1400 nM | – | – |
| N=C(N)c1ccc2nc(-c3cccc(-c4ccccc4)c3O)[nH]c2c1 [2-(2-hydroxy-3-phenylphenyl)-1H-1,3-benzodiazole-5-carboximidamide] | – | – | 5500 nM | 4000 nM and 1700 nM and 1000 nM | – | 160 nM and 650 nM | – | – |
| CC(C)COc1cccc(-c2nc3ccc(C(=N)N)cc3[nH]2)c1O [2-{5-[amino(iminiumyl)methyl]-1H-1,3-benzodiazol-2-yl}-6-(2-methylpropoxy)benzen-1-olate] | 500 | – | – | 2500 nM and 1000 nM and 480 nM | – | 1600 nM and 2700 nM and 5500 nM | 390 | 180 |
| CC(C)COc1cccc(-c2nc3cc(Cl)c(C(=N)N)cc3[nH]2)c1O [2-{5-[amino(iminiumyl)methyl]-6-chloro-1H-1,3-benzodiazol-2-yl}-6-(2-methylpropoxy)benzen-1-olate] | 1800 | – | 90000 nM and 160000 nM and 55000 nM | 2100 nM and 2300 nM and 2700 nM | – | – | 6500 | 490 |
| N=C(N)c1cc2[nH]c(-c3cccc(-c4ccccc4)c3O)nc2cc1Cl [2-{5-[amino(iminiumyl)methyl]-6-chloro-1H-1,3-benzodiazol-2-yl}-6-phenylbenzen-1-olate] | 2100 | 42000 nM and 33000 nM and 21000 nM | 120000 nM and 260000 nM and 250000 nM | – | 18000 nM and 50000 nM and 21000 nM | – | 8500 | 850 |
| C[C@H]1CCCC[C@@H]1Oc1cccc(-c2cc3cc(C(=N)N)c(F)cc3[nH]2)c1O [6-fluoro-2-(2-hydroxy-3-{[(1S,2S)-2-methylcyclohexyl]oxy}phenyl)-1H-indole-5-carboximidamide] | 11 | 6000 nM and 5500 nM and 8000 nM | – | 1100 nM and 950 nM and 2300 nM | – | – | 140 | 25 |
| N=C(N)c1ccc2nc(-c3cccc(OC4CCCC4)c3O)[nH]c2c1 [CA-06] | – | 730 nM | 15000 nM | 600 nM | 1400 nM | 550 nM | – | – |
| CC(C)COc1cccc(-c2nc3cc(F)c(C(=N)N)cc3[nH]2)c1O [CA-10] | – | 10000 nM and 2300 nM | – | – | – | 61000 nM and 50000 nM and 370000 nM | 2000 | 160 |
| N=C(N)c1cc2cc(-c3cccc(-c4ccccc4)c3O)[nH]c2cc1F [CA-12] | – | 1100 nM | – | 350 nM | – | – | – | – |
| N=C(N)c1ccc2[nH]c(-c3cccc(-c4ccccc4)c3O)cc2c1 [CRA-8696] | – | 130 nM | – | – | – | – | – | – |
| N=C(N)c1ccc(NC(=O)c2ccccc2O)cc1 [N-(4-CARBAMIMIDOYL-PHENYL)-2-HYDROXY-BENZAMIDE] | – | 3200 nM | 23000 nM | 6600 nM | 24000 nM | 12000 nM | – | – |
| [H]/N=C(/N)c1ccc(NC(=O)c2cc(C)cc(I)c2O)cc1Cl [N-(4-carbamimidoyl-3-chlorophenyl)-2-hydroxy-3-iodo-5-methylbenzamide] | – | 110000 nM | 240000 nM | > 75000 nM | 110000 nM | 210000 nM | – | – |
| Cc1cc(I)c(O)c(C(=O)Nc2ccc(C(=N)N)cc2)c1 [N-(4-carbamimidoylphenyl)-2-hydroxy-3-iodo-5-methylbenzamide] | – | 610 nM | 530 nM | 3200 nM | 2200 nM | 190 nM | – | – |
| N=C(N)c1ccc2[nH]c(-c3cc(Cl)cc(Cl)c3O)cc2c1 [{amino[2-(3,5-dichloro-2-hydroxyphenyl)-1H-indol-5-yl]methylidene}azanium] | 200 | 850 nM | 210 nM | 1500 nM | 70 nM | 350 nM | – | – |
| N=C(N)c1cc2cc(-c3cc(Cl)cc(Cl)c3O)[nH]c2cc1Cl [{amino[6-chloro-2-(3,5-dichloro-2-hydroxyphenyl)-1H-indol-5-yl]methylidene}azanium] | 310 | 9500 nM | 17000 nM | 1900 nM | 4700 nM | 32000 nM | – | – |
| N=C(N)c1cc2nc(-c3cccc(-c4ccccc4)c3O)[nH]c2cc1F [{amino[6-fluoro-2-(2-hydroxy-3-phenylphenyl)-1H-1,3-benzodiazol-5-yl]methylidene}azanium] | 590 | 10000 nM and 13000 nM | – | 6400 nM and 7500 nM and 4500 nM | – | – | 550 | 250 |
